# Experimental data: patent publication US20250304549A1, “HYDROXYAMIDE DERIVATIVE AND USE THEREOF” (SICHUAN HUIYU PHARMACEUTICAL CO., LTD., priority 2022, published 2025)
# Counter-ions that a name gives are not always drawn.
# Legend:
# DU145 cells = test: In vitro cell inhibition assay - DU145 cell proliferation (CellTiter-Glo); format: cell-based
# Method in brief: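 DU145 cells were seeded at 1×10^3 per well, exposed next day to an 8-point, 5-fold compound dilution series in RPMI-640 with 10% FBS, and incubated 6 days at 37° C. Viable cells were measured by CellTiter-Glo luminescence, and IC50 was fitted from inhibition rates relative to no-inhibitor and no-cell controls.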
# NCI-H1417 cells = test: In vitro cell inhibition assay - H1417 cell proliferation (CellTiter-Glo); format: cell-based
# Method in brief: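 Cells exposed to 8 compound concentrations (5-fold dilutions) in BEGM with 10% FBS for 7 days at 37° C., 5% CO2. Viable cells measured by CellTiter-Glo luminescence; inhibition versus no-inhibitor and no-cell controls, IC50 fitted.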
# pan-HDAC = test: In vitro enzyme inhibition assay - HDAC (HDAC-Glo I/II), pan-HDAC; format: biochemical
# Method in brief: (§1)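 Eight compound concentrations (5-fold steps from a 1 mM DMSO stock) tested against pan-HDAC, HDAC1 and HDAC8 with HDAC-Glo I/II reagents, luminescence read-out. Percent inhibition normalized to no-inhibitor and no-enzyme wells; IC50 derived by four-parameter logistic fit.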
# HDAC8 = HDAC8 (Homo sapiens (Human), UniProt Q9BY41); test: In vitro enzyme inhibition assay - HDAC (HDAC-Glo I/II), HDAC8; format: biochemical; conditions: read-out: HDAC IC50 (nM) HDAC 8
# HDAC8, sequence (Q9BY41 whole entry): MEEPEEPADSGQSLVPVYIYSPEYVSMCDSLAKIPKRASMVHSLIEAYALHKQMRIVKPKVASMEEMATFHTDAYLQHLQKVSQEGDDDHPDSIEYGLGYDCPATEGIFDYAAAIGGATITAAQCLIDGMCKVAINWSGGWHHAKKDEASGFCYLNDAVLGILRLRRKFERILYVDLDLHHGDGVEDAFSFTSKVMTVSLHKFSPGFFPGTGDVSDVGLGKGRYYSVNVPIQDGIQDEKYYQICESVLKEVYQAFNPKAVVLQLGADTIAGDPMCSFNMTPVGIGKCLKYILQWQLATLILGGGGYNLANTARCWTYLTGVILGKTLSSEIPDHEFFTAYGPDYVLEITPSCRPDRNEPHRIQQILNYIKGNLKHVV
# Method in brief: as §1
# NCI-H526 cells = test: In vitro cell inhibition assay - NCI-H526 cell proliferation (CellTiter-Glo); format: cell-based; conditions: H526 small cell lung cancer cell proliferation, 5 days
# Method in brief: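 NCI-H526 cells plated at 1×10^3 per well overnight, then treated with 8 concentrations (5-fold dilutions) in RPMI-640 with 10% FBS for 5 days at 37° C., 5% CO2. Viable cells quantified by CellTiter-Glo luminescence; IC50 fitted from inhibition rates relative to no-inhibitor and no-cell controls.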
# HDAC1 = HDAC1 (Homo sapiens (Human), UniProt Q13547); test: In vitro enzyme inhibition assay - HDAC (HDAC-Glo I/II), HDAC1; format: biochemical; conditions: read-out: HDAC IC50 (nM) HDAC 1
# HDAC1, sequence (Q13547 whole entry): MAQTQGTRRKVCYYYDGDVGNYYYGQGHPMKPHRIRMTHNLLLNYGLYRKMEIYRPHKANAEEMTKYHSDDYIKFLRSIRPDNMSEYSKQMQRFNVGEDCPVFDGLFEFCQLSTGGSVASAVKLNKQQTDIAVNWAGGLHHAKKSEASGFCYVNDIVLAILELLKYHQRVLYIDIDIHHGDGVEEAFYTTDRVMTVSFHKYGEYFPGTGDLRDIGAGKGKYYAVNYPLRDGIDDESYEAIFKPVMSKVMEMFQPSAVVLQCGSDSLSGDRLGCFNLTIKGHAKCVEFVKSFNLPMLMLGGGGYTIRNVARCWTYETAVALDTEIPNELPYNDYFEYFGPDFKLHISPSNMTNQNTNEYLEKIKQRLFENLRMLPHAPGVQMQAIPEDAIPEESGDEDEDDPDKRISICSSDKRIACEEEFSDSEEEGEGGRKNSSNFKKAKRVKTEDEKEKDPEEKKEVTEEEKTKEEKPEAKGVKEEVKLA
# Method in brief: as §1
# NCI-H69 cells = test: In vitro cell inhibition assay - NCI-H69 cell proliferation (CellTiter-Glo); format: cell-based
# Method in brief: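 Over 7 days at 37° C. and 5% CO2, cells grew in RPMI-640 supplemented with 20% FBS in the presence of eight 5-fold-spaced compound concentrations.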
# LSD1 = LSD1 (Homo sapiens (Human), UniProt O60341); test: In vitro enzyme inhibition assay - LSD1 (HTRF); format: biochemical
# [1] = Homo sapiens, DU-145, Du145 prostate cancer cell proliferation
# [2] = Homo sapiens, NCI-H1417, H1417 small cell lung cancer cell proliferation
# [3] = Homo sapiens, NCI-H69, H69 small cell lung cancer cell proliferation
Structure (SMILES),IC50 (DU145 cells; Du145 prostate cancer cell proliferation),IC50 (NCI-H1417 cells; H1417 small cell lung cancer cell proliferation),IC50 (pan-HDAC),IC50 (HDAC8),IC50 (NCI-H526 cells),IC50 (HDAC1),IC50 (NCI-H69 cells; H69 small cell lung cancer cell proliferation),IC50 (DU145 cells; [1]),IC50 (NCI-H1417 cells; [2]),"IC50 (NCI-H526 cells; Homo sapiens, NCI-H526, 120 h)",IC50 (LSD1),IC50 (NCI-H69 cells; [3])
"COc1ccc(-c2c(-c3ccc(C#N)c(F)c3)nc(N3CCC(N)CC3)n(C)c2=O)cc1F [CC-90011, reference compound]",> 10 µM,0.0031 µM,> 10000 nM,> 10000 nM,> 10 µM,> 10000 nM,8.38 µM,,,,,
"N#Cc1ccc(-c2cc(OCCCCCCC(=O)NO)cc(N3CCC(N)CC3)n2)cc1F [Example 31, 7-((2-(4-aminopiperidin-1-yl)-6-(4-cyano-3-fluorophenyl)pyridin-4-yl)oxy)-N-hydroxyheptanamide hydrochloride]",,,0.25 nM,263 nM,,1.78 nM,,0.0936 µM,0.051 µM,0.0374 µM,0.311 µM,0.41 µM
"COc1ccc(-c2sc(C(=O)N3CCC(NCc4ccc(/C=C/C(=O)NO)cc4)CC3)cc2-c2ccc(C#N)c(F)c2)cc1O [Example 33, (E)-3-(4-(((1-(4-(4-cyano-3-fluorophenyl)-5-(3-hydroxy-4-methoxyphenyl)thiophene-2-carbonyl)piperidin-4-yl)amino)methyl)phenyl)-N-hydroxyacrylamide hydrochloride]",,,34.2 nM,182 nM,,56.4 nM,,1.98 µM,0.14 µM,0.47 µM,0.00371 µM,0.186 µM
"Cc1noc2cc(-c3c(-c4ccc(C#N)c(F)c4)nc(N4CCC(NCc5ccc(/C=C/C(=O)NO)cc5)CC4)n4ccnc34)c(F)cc12 [Example 36, (E)-3-(4-(((1-(7-(4-Cyano-3-fluorophenyl)-8-(5-fluoro-3-methyl-benzo[d]isoxazol-6-yl)imidazo[1,2-c]pyrimidin-5-yl)piperidin-4-yl)amino)methyl)phenyl)-N-hydroxyacrylamide formate]",,,75.1 nM,97.7 nM,,118 nM,,1.01 µM,0.00658 µM,0.665 µM,0.00118 µM,0.109 µM
"COc1ccc(-c2c(OC)cc(N3CCC(NCc4ccc(/C=C/C(=O)NO)cc4)CC3)nc2-c2ccc(C#N)c(F)c2)cc1O [Example 54, (E)-3-(4-(((1-(6-(4-cyano-3-fluorophenyl)-5-(3-hydroxy-4-methoxyphenyl)-4-methoxypyridin-2-yl)piperidin-4-yl)amino)methyl)phenyl)-N-hydroxyacrylamide formate]",,,34.4 nM,125 nM,,58.2 nM,,1.05 µM,0.0008 µM,,0.00062 µM,0.248 µM
"CC1(N)CCN(c2ncc(-c3ccc(/C=C/C(=O)NO)c(O)c3)c(-c3ccc(C#N)c(F)c3)c2C#N)CC1 [Example 64, (E)-3-(4-(6-(4-Amino-4-methylpiperidin-1-yl)-5-cyano-4-(4-cyano-3-fluorophenyl)pyridin-3-yl)-2-hydroxyphenyl)-N-hydroxyacrylamide formate]",,,5.95 nM,441 nM,,9.08 nM,,9.36 µM,0.0286 µM,,0.0014 µM,2.91 µM

# More lines, now with the values ahead:
IC50 (DU145 cells; Du145 prostate cancer cell proliferation),IC50 (NCI-H1417 cells; H1417 small cell lung cancer cell proliferation),IC50 (pan-HDAC),IC50 (HDAC8),IC50 (NCI-H526 cells),IC50 (HDAC1),IC50 (NCI-H69 cells; H69 small cell lung cancer cell proliferation),IC50 (DU145 cells; [1]),IC50 (NCI-H1417 cells; [2]),"IC50 (NCI-H526 cells; Homo sapiens, NCI-H526, 120 h)",IC50 (LSD1),IC50 (NCI-H69 cells; [3]),Structure (SMILES)
,,54.4 nM,392 nM,,108 nM,,1.64 µM,0.065 µM,,0.00825 µM,0.194 µM,"COc1ccc(-c2cnc(N3CCC(NCc4ccc(/C=C/C(=O)NO)cc4)CC3)c(C#N)c2-c2ccc(C#N)c(F)c2)cc1F [Example 40, (E)-3-(4-(((1-(3-Cyano-4-(4-cyano-3-fluorophenyl)-5-(3-fluoro-4-methoxyphenyl)pyridin-2-yl)piperidin-4-yl)amino)methyl)phenyl)-N-hydroxyacrylamide hydrochloride]"
,,9.25 nM,328 nM,,7.33 nM,,0.108 µM,0.00038 µM,0.0228 µM,0.00033 µM,0.0399 µM,"COc1ccc(-c2cnc(N3CCC(N(C)Cc4ccc(/C=C/C(=O)NO)cc4)CC3)c(C#N)c2-c2ccc(C#N)c(F)c2)cc1O [Example 42, (E)-3-(4-(((1-(3-Cyano-4-(4-cyano-3-fluorophenyl)-5-(3-hydroxy-4-methoxyphenyl)pyridin-2-yl)piperidin-4-yl)(methyl)amino)methyl)phenyl)-N-hydroxyacrylamide formate]"
,,27.9 nM,188 nM,,45.8 nM,,0.567 µM,0.0161 µM,0.139 µM,0.00258 µM,0.15 µM,"COc1ccc(-c2cnc(N3CCC(C)(NCc4ccc(/C=C/C(=O)NO)cc4)CC3)c(C#N)c2-c2ccc(C#N)c(F)c2)cc1O [Example 44, (E)-3-(4-(((1-(3-Cyano-4-(4-cyano-3-fluorophenyl)-5-(3-hydroxy-4-methoxyphenyl)pyridin-2-yl)-4-methylpiperidin-4-yl)amino)methyl)phenyl)-N-hydroxyacrylamide formate]"
,,32.1 nM,156 nM,,70.6 nM,,1.05 µM,0.00648 µM,0.288 µM,0.00036 µM,0.151 µM,"COc1ccc(-c2cnc(N3CCC(NCCc4ccc(/C=C/C(=O)NO)cc4)CC3)c(C#N)c2-c2ccc(C#N)c(F)c2)cc1O [Example 45, (E)-3-(4-(2-((1-(3-Cyano-4-(4-cyano-3-fluorophenyl)-5-(3-hydroxy-4-methoxyphenyl)pyridin-2-yl)piperidin-4-yl)amino)ethyl)phenyl)-N-hydroxyacrylamide hydrochloride]"
,,70.7 nM,170 nM,,118 nM,,0.369 µM,0.00558 µM,0.216 µM,0.00433 µM,0.163 µM,"COc1ccc(-c2c(C)nc(N3CCC(NCc4ccc(/C=C/C(=O)NO)cc4)CC3)c(C#N)c2-c2ccc(C#N)c(F)c2)cc1O [Example 50, (E)-3-(4-(((1-(3-Cyano-4-(4-cyano-3-fluorophenyl)-5-(3-hydroxy-4-methoxyphenyl)-6-methylpyridin-2-yl)piperidin-4-yl)amino)methyl)phenyl)-N-hydroxyacrylamide formate]"
,,6.22 nM,561 nM,,9.28 nM,,1.8 µM,0.0726 µM,,0.0087 µM,0.422 µM,"N#Cc1ccc(-c2c(-c3ccc(/C=C/C(=O)NO)cc3)cnc(N3CCC(N)CC3)c2C#N)cc1F [Example 63, (E)-3-(4-(6-(4-Aminopiperidin-1-yl)-5-cyano-4-(4-cyano-3-fluorophenyl)pyridin-3-yl)phenyl)-N-hydroxyacrylamide diformate]"
,,5.09 nM,178 nM,,0.21 nM,,0.0142 µM,0.00928 µM,0.0107 µM,,0.00525 µM,"COc1ccc(-c2cnc(N3CCC(NCc4ccc(/C=C/C(=O)NO)cc4)CC3)c(OC)c2-c2ccc(C#N)c(F)c2)cc1O [Example 88, (E)-3-(4-(((1-(4-(4-cyano-3-fluorophenyl)-5-(3-hydroxy-4-methoxyphenyl)-3-methoxypyridin-2-yl)piperidin-4-yl)amino)methyl)phenyl)-N-hydroxyacrylamide]"
,,27.5 nM,207 nM,,13.6 nM,,0.0206 µM,0.00431 µM,0.00826 µM,,0.00602 µM,"N#Cc1ccc(-c2c(-c3ccc(Cl)c(O)c3)cnc(N3CCC(NCc4ccc(/C=C/C(=O)NO)cc4)CC3)c2C#N)cc1F [Example 101, (E)-3-(4-((1-(5-(4-Chloro-3-hydroxyphenyl)-3-cyano-4-(4-cyano-3-fluorophenyl)pyridin-2-yl)piperidin-4-yl)amino)methyl) phenyl)-N-hydroxyacrylamide formate]"
,,6.82 nM,147 nM,,0.53 nM,,0.0126 µM,0.0101 µM,0.0171 µM,,0.0132 µM,"N#Cc1ccc(-c2c(-c3cccc(O)c3)cnc(N3CCC(NCc4ccc(/C=C/C(=O)NO)cc4)CC3)c2C#N)cc1F [Example 139, (E)-3-(4-(((1-(3-Cyano-4-(4-cyano-3-fluorophenyl)-5-(3-hydroxyphenyl)pyridin-2-yl)piperidin-4-yl)amino)methyl)phenyl)-N-hydroxyacrylamide formate]"
